Results as given in patent publication US20100197643A1, “PHYTOCHEMICAL-RICH OILS AND METHODS RELATED THERETO” (priority 2007, published 2010).

Legend:
[1] = Phenolic storage stability of açai oil, 10 weeks at 20, 30, 40° C.; format: physicochemical; conditions: for change in concentration after storage: 10 weeks at 20 or 30 ° C.
Caco-2 cell monolayers = assay: Transepithelial transport model, apical to basolateral; format: in vitro ADME; conditions: 2 hours, 37° C., not affected by initial polyphenolic concentration
caspase-3 = assay: Caspase-3 activation in HL-60 cells; format: cell-based, human; conditions: optimal time (2, 3, 4 hours tested), highest concentration

Oc1cc(O)c2c(c1)O[C@H](c1ccc(O)c(O)c1)[C@@H](O)C2 [(+)-catechin]
change in concentration after storage [1]: no significant changes
transport efficiency (percentage of initial apical concentration detected on basolateral side) (Caco-2 cell monolayers; from açai oil extracts): approximately 0.1%

O=c1c(O)c(-c2ccc(O)c(O)c2)oc2cc(O)cc(O)c12 [Quercetin, quercetin]
caspase-3 activation (maximal) (caspase-3): double

CC[C@@]1(O)C(=O)OCc2c1cc1n(c2=O)Cc2cc3ccccc3nc2-1 [camptotechin]
caspase-3 activation (maximal) (caspase-3): 7 fold

COc1cc(/C=C/C(=O)O)ccc1O [ferulic acid]
decrease in concentration after storage ([1]; 10 weeks at 20° C.): 9.3%
decrease in concentration after storage ([1]; 10 weeks at 30° C.): 20.3%
decrease / change in concentration after storage ([1]; 10 weeks at 40° C.): 33.1%
transport efficiency (percentage of initial apical concentration detected on basolateral side) (Caco-2 cell monolayers; from açai oil extracts): approximately 0.1%

O=C(O)c1ccc(O)cc1 [p-hydroxybenzoic acid]
change in concentration after storage [1]: no significant changes
transport efficiency (percentage of initial apical concentration detected on basolateral side) (Caco-2 cell monolayers; from açai pulp extracts): approximately 2.0%

O=C(O)c1ccc(O)c(O)c1 [protocatechuic acid, 3,4-dihydroxybenzoic acid]
change in concentration after storage [1]: no significant changes

COc1cc(C(=O)O)cc(OC)c1O [syringic acid]
change in concentration after storage [1]: no significant changes
transport efficiency (percentage of initial apical concentration detected on basolateral side) (Caco-2 cell monolayers; from açai pulp extracts): approximately 0.6%

COc1cc(C(=O)O)ccc1O [vanillic acid]
change in concentration after storage [1]: no significant changes
